In patent US10953100B2, “Compounds and therapeutic uses thereof” (priority 2015, dated 2021) one finds EC50 data, which are given here for 11 compounds.

pEC50: −log10 of the molar value.

This experiment concerns the target Anti-alpha galactosyl IgG antibody. The experiment is described as follows: ELISA assay: streptavidin-captured biotin compound, binding of anti-alpha galactosyl IgG antibody. Details: species or system human. To be noted: geometric mean with standard error in brackets; streptavidin plate, anti-alpha galactosyl IgG 0.5 μg/mL; read-out: Concentration at half maximal binding. The method, then:
Compounds containing F (representing a carbohydrate molecule capable of binding to a human anti-alpha-galactosyl antibody) and L (as biotin) were assayed for binding at both ends of the compound using an enzyme-linked immunosorbent assay (ELISA). Streptavidin-coated plates captured biotin to the surface of the plate and the binding of anti-alpha galactosyl antibodies to the alpha-galactosyl moiety was reported by a secondary antibody labelled with HRP (Horse Radish Peroxidase).
Compounds were titrated 1.5 fold from a top dose of 50 nM in phosphate buffered saline (PBS) (Sigma D8537)+0.025% DMSO (Dimethyl Sulphoxide, Sigma D8418). Streptavidin immobilizer 96-well plates (nunc 436014) were coated with 100 μL of compound at room temperature for 2 hours shaking at 500 rpm. Plates were washed with 2×200 μL PBS-T (PBS with 0.05% Tween 20 (Sigma P9416)) and 1×200 μL PBS-T with a 5 minute incubation shaking at room temperature, prior to being blocked for 1 hour at room temperature with 1% Bovine Serum Albumin (BSA, Sigma A2153) in PBS-T. After removing the blocking buffer, 50 μL of Anti-alpha galactosyl IgG antibody (Anti-alpha-galactosyl antibody was purified from human IVIG (Gammagard) by affinity purification using an alpha-galactosyl-HSA (Human Serum Albumin) sepharose column by Rockland Immunochemicals Inc.) at 0.5 μg/mL in PBS-T+1% BSA and incubated shaking at room temperature for 1 hour.
Plates were washed 2×200 μL PBS-T and 3×200 μL PBS-T with a 5 minute incubation, shaking at room temperature before the addition of 50 μL 1:5000 Goat Anti-Human IgG-HRP (horseradish peroxidase) conjugate (Abcam ab97175). The plates were incubated shaking at room temperature for 1 hour before a final wash of 2×200 μL PBS-T and 3×200 μl PBS-T with a 5 minute incubation shaking at room temperature. 100 μL TMB buffer (3,3′,5,5′-tetramethylbenzidine, a chromogenic substrate for horseradish peroxidase) (Pierce 34021) was added to the plate and allowed to develop for 5-10 minutes before the samples were quenched with 50 μL 2M sulfuric acid (Sigma 258105). The absorbance was read at 450 nm on an Envision plate reader (Perkin Elmer). Results from wells (duplicate) were averaged and the 50% binding affinity calculated.
The concentration at which half-maximal binding is achieved is reported as a geometric mean with standard error in brackets. The number of independent experiments is also reported. In order to achieve a signal both ends of the molecule are required to bind (biotin to streptavidin and alpha-galactosyl to anti-alpha galactosyl antibodies) simultaneously.
Take `CC(=O)N[C@H]1[C@H](OCCCNC(=O)COc2cc(OCC(=O)NCCCO[C@@H]3O[C@H](CO)[C@@H](O[C@@H]4O[C@H](CO)[C@H](O)[C@H](O[C@H]5O[C@H](CO)[C@H](O)[C@H](O)[C@H]5O)[C@H]4O)[C@H](O)[C@H]3NC(C)=O)cc(-c3cc(OCC(=O)NCCCO[C@@H]4O[C@H](CO)[C@@H](O[C@@H]5O[C@H](CO)[C@H](O)[C@H](O[C@H]6O[C@H](CO)[C@H](O)[C@H](O)[C@H]6O)[C@H]5O)[C@H](O)[C@H]4NC(C)=O)cc(C(=O)NCCNC(=O)CCCC[C@@H]4SC[C@@H]5NC(=O)N[C@@H]54)c3)c2)O[C@H](CO)[C@@H](O[C@@H]2O[C@H](CO)[C@H](O)[C@H](O[C@H]3O[C@H](CO)[C@H](O)[C@H](O)[C@H]3O)[C@H]2O)[C@@H]1O` [Example 1]: the pEC50 is 8.09.
To `CC(=O)N[C@H]1[C@H](OCCCNC(=O)COc2cccc(C(=O)NCCNC(=O)CCCC[C@@H]3SC[C@@H]4NC(=O)N[C@@H]43)c2)O[C@H](CO)[C@@H](O[C@@H]2O[C@H](CO)[C@H](O)[C@H](O[C@H]3O[C@H](CO)[C@H](O)[C@H](O)[C@H]3O)[C@H]2O)[C@@H]1O` [Example 2, 3-(2-((3-(((2R,3R,4R,5S,6R)-3-Acetamido-5-(((2S,3R,4S,5S,6R)-3,5-dihydroxy-6-(hydroxymethyl)-4-(((2R,3R,4S,5R,6R)-3,4,5-trihydroxy-6-(hydroxymethyl)tetrahydro-2H-pyran-2-yl)oxy)tetrahydro-2H-pyran-2-yl)oxy)-4-hydroxy-6-(hydroxymethyl)tetrahydro-2H-pyran-2-yl)oxy)propyl)amino)-2-oxoethoxy)-N-(2-(5-((3aS,4S,6aR)-2-oxohexahydro-1H-thieno[3,4-d]imidazol-4-yl)pentanamido)ethyl)benzamide] belongs 7.67.
To `CC(=O)NC1C(OCCCNC(=O)COc2cccc(C(=O)NCCNC(=O)CCOCCOCCOCCOCCOCCOCCOCCOCCOCCOCCOCCOCCNC(=O)CCCCC3SCC4NC(=O)NC43)c2)OC(CO)C(OC2OC(CO)C(O)C(OC3OC(CO)C(O)C(O)C3O)C2O)C1O` (centres unmarked) [Example 3] belongs 7.82.
To `CC(=O)N[C@H]1[C@H](OCCCNC(=O)c2cccc(OCC(=O)NCCNC(=O)CCCC[C@@H]3SC[C@@H]4NC(=O)N[C@@H]43)c2)O[C@H](CO)[C@@H](O[C@@H]2O[C@H](CO)[C@H](O)[C@H](O[C@H]3O[C@H](CO)[C@H](O)[C@H](O)[C@H]3O)[C@H]2O)[C@@H]1O` [Example 4, N-(3-(((2R,3R,4R,5S,6R)-3-Acetamido-5-(((2S,3R,4S,5S,6R)-3,5-dihydroxy-6-(hydroxymethyl)-4-(((2R,3R,4S,5R,6R)-3,4,5-trihydroxy-6-(hydroxymethyl)tetrahydro-2H-pyran-2-yl)oxy)tetrahydro-2H-pyran-2-yl)oxy)-4-hydroxy-6-(hydroxymethyl)tetrahydro-2H-pyran-2-yl)oxy)propyl)-3-(2-oxo-2-((2-(5-((3aS,4S,6aR)-2-oxohexahydro-1H-thieno[3,4-d]imidazol-4-yl)pentanamido)ethyl)amino)ethoxy)benzamide] belongs 7.88; to `CC(=O)N[C@H]1[C@H](OCCCNC(=O)COc2cc(OCC(=O)NCCCO[C@@H]3O[C@H](CO)[C@@H](O[C@@H]4O[C@H](CO)[C@H](O)[C@H](O[C@H]5O[C@H](CO)[C@H](O)[C@H](O)[C@H]5O)[C@H]4O)[C@H](O)[C@H]3NC(C)=O)cc(C(=O)NCCNC(=O)CCCC[C@@H]3SC[C@@H]4NC(=O)N[C@@H]43)c2)O[C@H](CO)[C@@H](O[C@@H]2O[C@H](CO)[C@H](O)[C@H](O[C@H]3O[C@H](CO)[C@H](O)[C@H](O)[C@H]3O)[C@H]2O)[C@@H]1O` [Example 5], 8.04; to `CC(=O)NC1C(OCCCNC(=O)COc2cc(OCC(=O)NCCCOC3OC(CO)C(OC4OC(CO)C(O)C(OC5OC(CO)C(O)C(O)C5O)C4O)C(O)C3NC(C)=O)cc(C(=O)NCCNC(=O)CCOCCOCCOCCOCCOCCOCCOCCOCCOCCOCCOCCOCCNC(=O)CCCCC3SCC4NC(=O)NC43)c2)OC(CO)C(OC2OC(CO)C(O)C(OC3OC(CO)C(O)C(O)C3O)C2O)C1O` [Example 6, 1-{5-[(3aS,4S,6aR)-2-Oxo-hexahydro-1H-thieno[3,4-d]imidazolidin-4-yl]pentanamido}-N-(2-{[3,5-bis({[(3-{[(2R,5S)-5-{[(2S,5S)-3,5-dihydroxy-6-(hydroxymethyl)-4-{[(2R,5R)-3,4,5-trihydroxy-6-(hydroxymethyl)oxan-2-yl]oxy}oxan-2-yl]oxy}-3-acetamido-4-hydroxy-6-(hydroxymethyl)oxan-2-yl]oxy}propyl)carbamoyl]methoxy})phenyl]formamido}ethyl)-3,6,9,12,15,18,21,24,27,30,33,36-dodecaoxanonatriacontan-39-amide], 8.24.
As for `CC(=O)N[C@H]1[C@H](OCCCNC(=O)COc2ccc(-c3cc(OCC(=O)NCCCO[C@@H]4O[C@H](CO)[C@@H](O[C@@H]5O[C@H](CO)[C@H](O)[C@H](O[C@H]6O[C@H](CO)[C@H](O)[C@H](O)[C@H]6O)[C@H]5O)[C@H](O)[C@H]4NC(C)=O)cc(C(=O)NCCNC(=O)CCCC[C@@H]4SC[C@@H]5NC(=O)N[C@@H]54)c3)cc2)O[C@H](CO)[C@@H](O[C@@H]2O[C@H](CO)[C@H](O)[C@H](O[C@H]3O[C@H](CO)[C@H](O)[C@H](O)[C@H]3O)[C@H]2O)[C@@H]1O` [Example 7], the pEC50 was 7.80.
As for `CC(=O)N[C@H]1[C@H](OCCCNC(=O)COc2ccc(C(=O)NCCNC(=O)CCCC[C@@H]3SC[C@@H]4NC(=O)N[C@@H]43)cc2)O[C@H](CO)[C@@H](O[C@@H]2O[C@H](CO)[C@H](O)[C@H](O[C@H]3O[C@H](CO)[C@H](O)[C@H](O)[C@H]3O)[C@H]2O)[C@@H]1O` [Example 8, 4-(2-((3-(((2R,3R,4R,5S,6R)-3-Acetamido-5-(((2S,3R,4S,5S,6R)-3,5-dihydroxy-6-(hydroxymethyl)-4-(((2R,3R,4S,5R,6R)-3,4,5-trihydroxy-6-(hydroxymethyl)tetrahydro-2H-pyran-2-yl)oxy)tetrahydro-2H-pyran-2-yl)oxy)-4-hydroxy-6-(hydroxymethyl)tetrahydro-2H-pyran-2-yl)oxy)propyl)amino)-2-oxoethoxy)-N-(2-(5-((3aS,4S,6aR)-2-oxohexahydro-1H-thieno[3,4-d]imidazol-4-yl)pentanamido)ethyl)benzamide], the pEC50 was 7.54.
In the case of `CC(=O)N[C@H]1[C@H](OCCCNC(=O)COc2cc(OCC(=O)NCCCO[C@@H]3O[C@H](CO)[C@@H](O[C@@H]4O[C@H](CO)[C@H](O)[C@H](O[C@H]5O[C@H](CO)[C@H](O)[C@H](O)[C@H]5O)[C@H]4O)[C@H](O)[C@H]3NC(C)=O)cc(-c3cc(C(=O)NCCNC(=O)CCCC[C@@H]4SC[C@@H]5NC(=O)N[C@@H]54)c(OCC(=O)NCCCO[C@@H]4O[C@H](CO)[C@@H](O[C@@H]5O[C@H](CO)[C@H](O)[C@H](O[C@H]6O[C@H](CO)[C@H](O)[C@H](O)[C@H]6O)[C@H]5O)[C@H](O)[C@H]4NC(C)=O)cc3OCC(=O)NCCCO[C@@H]3O[C@H](CO)[C@@H](O[C@@H]4O[C@H](CO)[C@H](O)[C@H](O[C@H]5O[C@H](CO)[C@H](O)[C@H](O)[C@H]5O)[C@H]4O)[C@H](O)[C@H]3NC(C)=O)c2)O[C@H](CO)[C@@H](O[C@@H]2O[C@H](CO)[C@H](O)[C@H](O[C@H]3O[C@H](CO)[C@H](O)[C@H](O)[C@H]3O)[C@H]2O)[C@@H]1O` [Example 9], the pEC50 is 8.00.
To `CC(=O)N[C@H]1[C@H](OCCCNC(=O)COc2cc(C(=O)NCCNC(=O)CCCC[C@@H]3SC[C@@H]4NC(=O)N[C@@H]43)nc3ccccc23)O[C@H](CO)[C@@H](O[C@@H]2O[C@H](CO)[C@H](O)[C@H](O[C@H]3O[C@H](CO)[C@H](O)[C@H](O)[C@H]3O)[C@H]2O)[C@@H]1O` [Example 10, 4-(2-((3-(((2R,3R,4R,5S,6R)-3-Acetamido-5-(((2S,3R,4S,5S,6R)-3,5-dihydroxy-6-(hydroxymethyl)-4-(((2R,3R,4S,5R,6R)-3,4,5-trihydroxy-6-(hydroxymethyl)tetrahydro-2H-pyran-2-yl)oxy)tetrahydro-2H-pyran-2-yl)oxy)-4-hydroxy-6-(hydroxymethyl)tetrahydro-2H-pyran-2-yl)oxy)propyl)amino)-2-oxoethoxy)-N-(2-(5-((3aS,4S,6aR)-2-oxohexahydro-1H-thieno[3,4-d]imidazol-4-yl)pentanamido)ethyl)quinoline-2-carboxamide] belongs 7.59; to `CC(=O)N[C@H]1[C@H](OCCCNC(=O)COc2ccc(-c3cccc(C(=O)NCCNC(=O)CCCC[C@@H]4SC[C@@H]5NC(=O)N[C@@H]54)c3)cc2)O[C@H](CO)[C@@H](O[C@@H]2O[C@H](CO)[C@H](O)[C@H](O[C@H]3O[C@H](CO)[C@H](O)[C@H](O)[C@H]3O)[C@H]2O)[C@@H]1O` [Example 11], 7.72.
